Experimental data: ChEMBL document CHEMBL5046233, “Nitroxoline and its derivatives are potent inhibitors of metallo-β-lactamases” (Eur J Med Chem, 2022)
The source made the active and inactive calls. No cut-off for these calls is given here.

Key:
[1] = Inhibition of recombinant NDM-1 (unknown origin) using fluorocillin as substrate at 10 uM incubated for 30 mins by fluorescence based assay; settings: Bacteria
Bacteria [2] = test: Inhibition of recombinant VIM-1 (unknown origin) using fluorocillin as substrate at 30 uM incubated for 30 mins by fluorescence based assay
Bacteria [3] = test: Inhibition of recombinant VIM-1 (unknown origin) using fluorocillin as substrate at 10 uM incubated for 30 mins by fluorescence based assay
Bacteria [4] = test: Inhibition of recombinant VIM-1 (unknown origin) using fluorocillin as substrate at 3 uM incubated for 30 mins by fluorescence based assay
Bacteria [5] = test: Inhibition of recombinant IMP-1 (unknown origin) using fluorocillin as substrate at 30 uM incubated for 30 mins by fluorescence based assay
Bacteria [6] = test: Inhibition of recombinant IMP-1 (unknown origin) using fluorocillin as substrate at 3 uM incubated for 30 mins by fluorescence based assay
Bacteria [7] = test: Inhibition of recombinant NDM-1 (unknown origin) using fluorocillin as substrate in presence of ZnCl2 incubated for 30 mins by fluorescence based assay
Escherichia coli [8] = test: Antimicrobial activity against Escherichia coli T2544 expressing VIM-1 assessed as inhibition of bacterial growth by CLSI protocol based broth microdilution assay; assay type: functional
Escherichia coli [9] = test: Potentiation of imipenem-induced antibacterial activity against Escherichia coli clinical isolate T2228 expressing VIM-1 assessed as fold change in imipenem MIC at 32 mg/L by CLSI protocol based broth microdilution assay; assay type: functional
Klebsiella pneumoniae [10] = test: Potentiation of piperacillin-induced antibacterial activity against Klebsiella pneumoniae clinical isolate T2301 expressing NDM-1 assessed as piperacillin MIC at 32 mg/L by CLSI protocol based broth microdilution assay; assay type: functional
Escherichia coli [11] = test: Potentiation of piperacillin-induced antibacterial activity against Escherichia coli clinical isolate T2228 expressing VIM-1 assessed as piperacillin MIC at 32 mg/L by CLSI protocol based broth microdilution assay; assay type: functional
Escherichia coli [12] = test: Potentiation of ceftazidime-induced antibacterial activity against Escherichia coli clinical isolate T2228 expressing VIM-1 assessed as ceftazidime MIC at 32 mg/L by CLSI protocol based broth microdilution assay; assay type: functional
Escherichia coli [13] = test: Potentiation of meropenem-induced antibacterial activity against Escherichia coli clinical isolate T2228 expressing VIM-1 assessed as meropenem MIC at 32 mg/L by CLSI protocol based broth microdilution assay; assay type: functional
Serratia marcescens = test: Potentiation of imipenem-induced antibacterial activity against Serratia marcescens T2352 expressing NDM-1 assessed as fold change in imipenem MIC at 32 mg/L by CLSI protocol based broth microdilution assay; assay type: functional
Pseudomonas aeruginosa [14] = test: Potentiation of imipenem-induced antibacterial activity against Pseudomonas aeruginosa T1098 expressing IMP-7 assessed as fold change in imipenem MIC at 32 mg/L by CLSI protocol based broth microdilution assay; assay type: functional
Enterobacter cloacae [15] = test: Potentiation of imipenem-induced antibacterial activity against Enterobacter cloacae T2353 expressing VIM-1 assessed as fold change in imipenem MIC at 32 mg/L by CLSI protocol based broth microdilution assay; assay type: functional
Klebsiella pneumoniae [16] = test: Potentiation of imipenem-induced antibacterial activity against Klebsiella pneumoniae T2216 expressing VIM-1 assessed as fold change in imipenem MIC at 32 mg/L by CLSI protocol based broth microdilution assay; assay type: functional
Pseudomonas aeruginosa [17] = test: Potentiation of imipenem-induced antibacterial activity against Pseudomonas aeruginosa T2217 expressing VIM-2 assessed as fold change in imipenem MIC at 32 mg/L by CLSI protocol based broth microdilution assay; assay type: functional
Pseudomonas aeruginosa [18] = test: Potentiation of imipenem-induced antibacterial activity against Pseudomonas aeruginosa T2283 expressing VIM-2 assessed as fold change in imipenem MIC at 32 mg/L by CLSI protocol based broth microdilution assay; assay type: functional
Pseudomonas aeruginosa [19] = test: Potentiation of imipenem-induced antibacterial activity against Pseudomonas aeruginosa T2229 expressing SPM-1 assessed as fold change in imipenem MIC at 32 mg/L by CLSI protocol based broth microdilution assay; assay type: functional
Klebsiella pneumoniae [20] = test: Potentiation of imipenem-induced antibacterial activity against Klebsiella pneumoniae T2432 expressing KPC-9 assessed as fold change in imipenem MIC at 32 mg/L by CLSI protocol based broth microdilution assay; assay type: functional
Escherichia coli [21] = test: Potentiation of imipenem-induced antibacterial activity against Escherichia coli T2433 expressing OXA-48 assessed as fold change in imipenem MIC at 32 mg/L by CLSI protocol based broth microdilution assay; assay type: functional
Klebsiella pneumoniae [22] = test: Bactericidal activity against Klebsiella pneumoniae T2301 expressing NDM-1 assessed as killing rate at 0.5 X MIC measured after 24 hrs in presence of imipenem by time-kill assay relative to control; assay type: functional
Escherichia coli [23] = test: Potentiation of imipenem-induced antibacterial activity against Escherichia coli T2544 expressing VIM-1 assessed as imipenem MIC at 32 mg/L by CLSI protocol based broth microdilution assay; assay type: functional
Klebsiella pneumoniae [24] = test: Potentiation of imipenem-induced antibacterial activity against Klebsiella pneumoniae clinical isolate T2301 expressing NDM-1 assessed as imipenem MIC at 32 mg/L by CLSI protocol based broth microdilution assay; assay type: functional
Escherichia coli [25] = test: Synergistic antibacterial activity against Escherichia coli T2359 expressing NDM-1 assessed as fractional inhibitory concentration index in presence of imipenem by checkerboard assay; assay type: functional
Escherichia coli [26] = test: Synergistic antibacterial activity against Escherichia coli T2544 expressing VIM-1 assessed as fractional inhibitory concentration index in presence of imipenem by checkerboard assay; assay type: functional
Klebsiella pneumoniae [27] = test: Synergistic antibacterial activity against Klebsiella pneumoniae clinical isolate T2301 expressing NDM-1 assessed as fractional inhibitory concentration index in presence of imipenem by checkerboard assay; assay type: functional
Escherichia coli [28] = test: Synergistic antibacterial activity against Escherichia coli clinical isolate T2228 expressing VIM-1 assessed as fractional inhibitory concentration index in presence of imipenem by checkerboard assay; assay type: functional
Klebsiella pneumoniae [29] = test: Antimicrobial activity against Klebsiella pneumoniae T2301 expressing NDM-1 assessed as inhibition of bacterial growth at 0.5XMIC for 6 hrs by CLSI protocol based broth microdilution assay; assay type: functional, organism-based
Enterobacter cloacae [30] = test: Potentiation of imipenem-induced antibacterial activity against Enterobacter cloacae T2311 expressing NDM-1 assessed as imipenem MIC at 32 mg/L by CLSI protocol based broth microdilution assay; assay type: functional
Escherichia coli [31] = test: Potentiation of imipenem-induced antibacterial activity against Escherichia coli T2351 expressing NDM-5 assessed as imipenem MIC at 32 mg/L by CLSI protocol based broth microdilution assay; assay type: functional
Pseudomonas aeruginosa [32] = test: Potentiation of imipenem-induced antibacterial activity against Pseudomonas aeruginosa T2325 expressing IMP-1 assessed as imipenem MIC at 32 mg/L by CLSI protocol based broth microdilution assay; assay type: functional
Pseudomonas aeruginosa [33] = test: Potentiation of imipenem-induced antibacterial activity against Pseudomonas aeruginosa T1098 expressing IMP-7 assessed as imipenem MIC at 32 mg/L by CLSI protocol based broth microdilution assay; assay type: functional
Pseudomonas aeruginosa [34] = test: Potentiation of imipenem-induced antibacterial activity against Pseudomonas aeruginosa T2357 expressing VIM-1 assessed as imipenem MIC at 32 mg/L by CLSI protocol based broth microdilution assay; assay type: functional
Pseudomonas aeruginosa [35] = test: Potentiation of imipenem-induced antibacterial activity against Pseudomonas aeruginosa T2217 expressing VIM-2 assessed as imipenem MIC at 32 mg/L by CLSI protocol based broth microdilution assay; assay type: functional

inhibition [1]: 88% | inhibition (Bacteria [2]): 100% | inhibition (Bacteria [3]): 100% | inhibition (Bacteria [4]): 98% | inhibition (Bacteria [5]): 98% | inhibition (Bacteria [6]): 59% | inhibition (Bacteria [7]): inactive | MIC (Escherichia coli [8]): > 0.065 µg/mL | MIC (Klebsiella pneumoniae [10]): 2.05 µg/mL | MIC (Escherichia coli [11]): 1 µg/mL | MIC (Escherichia coli [12]): 0.06 µg/mL | MIC (Escherichia coli [13]): 0.125 µg/mL | MIC (Escherichia coli [23]): 0.0005 µg/mL | MIC (Klebsiella pneumoniae [24]): 0.25 µg/mL | MIC (Enterobacter cloacae [30]): 0.0005 µg/mL | MIC (Escherichia coli [31]): 0.001 µg/mL | MIC (Pseudomonas aeruginosa [32]): 0.001 µg/mL | MIC (Pseudomonas aeruginosa [33]): 0.016 µg/mL | MIC (Pseudomonas aeruginosa [34]): 0.008 µg/mL | MIC (Pseudomonas aeruginosa [35]): 0.016 µg/mL
Structure (SMILES): N#CCN(Cc1ccccc1)Cc1cc([N+](=O)[O-])c2cccnc2c1O
fold change (FC) (Escherichia coli [9]): 8 | fold change (FC) (Serratia marcescens): 1024 | fold change (FC) (Pseudomonas aeruginosa [14]): 8 | fold change (FC) (Enterobacter cloacae [15]): 8 | fold change (FC) (Klebsiella pneumoniae [16]): 8 | fold change (FC) (Pseudomonas aeruginosa [17]): 16 | fold change (FC) (Pseudomonas aeruginosa [18]): 32 | fold change (FC) (Pseudomonas aeruginosa [19]): 16 | fold change (FC) (Klebsiella pneumoniae [20]): 2 | fold change (FC) (Escherichia coli [21]): 1 | Activity (Klebsiella pneumoniae [22]): >99.9% | fractional inhibitory concentration index (FICI) (Escherichia coli [25]): 0.265 | fractional inhibitory concentration index (FICI) (Escherichia coli [26]): 0.265 | fractional inhibitory concentration index (FICI) (Klebsiella pneumoniae [27]): 0.265 | fractional inhibitory concentration index (FICI) (Escherichia coli [28]): 0.265 | inhibition (Klebsiella pneumoniae [29]): Active
